Measured values: ChEMBL document CHEMBL1909492, “Discovery of 1-arylcarbonyl-6,7-dimethoxyisoquinoline derivatives as glutamine fructose-6-phosphate amidotransferase (GFAT) inhibitors” (Bioorg Med Chem Lett, 2011)
Converted amounts (≈) assume the structure as drawn. The source made the active and inactive calls. No cut-off for these calls is given here.

Tests used:
[1] = Inhibition of GFAT-beta expressed in COS cells using […] as substrate
[2] = target: T1, Glutamine--fructose-6-phosphate aminotransferase [isomerizing] 1 (Homo sapiens, UniProt Q06210); experiment: Noncompetitive inhibition of GFAT in presence of fructose-6-phosphate
[3] = target: T1, Glutamine--fructose-6-phosphate aminotransferase [isomerizing] 1; experiment: Competitive inhibition of GFAT in presence of glutamine
[4] = target: T1, Glutamine--fructose-6-phosphate aminotransferase [isomerizing] 1; experiment: Reversible inhibition of GFAT
[5] = Solubility of the compound at pH 6.4; type: physicochemical; conditions: buffer
[6] = Lipophilicity, log D of the compound at pH 7.2; type: physicochemical; conditions: buffer
[7] = Apparent permeability across human Caco2 cell membrane; type: ADME, cell-based; conditions: Caco-2
[8] = Half life in rat at 10 mg/kg, iv; type: ADME, organism-based; set-up: dose 10 mg/kg, route intravenous; conditions: in vivo
[9] = AUC in rat at 10 mg/kg, iv; type: ADME, organism-based; set-up: dose 10 mg/kg, route intravenous; conditions: plasma
[10] = Volume of distribution in rat at 10 mg/kg, iv; type: ADME, organism-based; set-up: dose 10 mg/kg, route intravenous; conditions: in vivo
[11] = Clearance in rat at 10 mg/kg, iv; type: ADME, organism-based; set-up: dose 10 mg/kg, route intravenous; conditions: in vivo
[12] = Tmax in rat at 50 mg/kg, po; type: ADME, organism-based; set-up: dose 50 mg/kg, route oral; conditions: in vivo
[13] = AUC in rat at 50 mg/kg, po; type: ADME, organism-based; set-up: dose 50 mg/kg, route oral; conditions: plasma
[14] = Cmax in rat at 50 mg/kg, po; type: ADME, organism-based; set-up: dose 50 mg/kg, route oral; conditions: in vivo
[15] = Oral bioavailability in rat at 50 mg/kg; type: ADME, organism-based; conditions: in vivo
[16] = test system: Mus musculus; experiment: Antidiabetic activity in fasted ob/ob mouse assessed as deduction of glucose excursion at 50 mg/kg, po at 4 hr and 1 hr prior to oral glucose challenge by oral glucose tolerance test; type: functional, organism-based; set-up: dose 50 mg/kg
[17] = test system: Mus musculus; experiment: Antidiabetic activity in […] ob/ob mouse assessed decrease of glucose AUC at 50 mg/kg, po at 4 hr and 1 hr prior to oral glucose challenge by oral glucose tolerance test relative to control; type: functional; set-up: scale not given: the % may be the effect or the level left
[18] = Photo-degradation of compound in DMSO at 1 mM after 2 hrs by LC/MS analysis; type: physicochemical; conditions: read-out: Activity
[19] = Photo-degradation of compound in DMSO exposed to daylight at 1 mM after 24 hrs by HPLC analysis; type: physicochemical; conditions: 1000 µM
[20] = Photo-degradation of compound in solid state over years by HPLC analysis; type: physicochemical
[21] = target: T1, Glutamine--fructose-6-phosphate aminotransferase [isomerizing] 1; experiment: Irreversible inhibition of GFAT
[22] = Photo-degradation of compound in DMSO at 1 mM after 2 hrs by HPLC/UV spectrophotometric analysis; type: physicochemical; conditions: read-out: Activity
[23] = target: T1, Glutamine--fructose-6-phosphate aminotransferase [isomerizing] 1; experiment: Inhibition of GFAT using […] as substrate

T1 sequence (Q06210 whole entry): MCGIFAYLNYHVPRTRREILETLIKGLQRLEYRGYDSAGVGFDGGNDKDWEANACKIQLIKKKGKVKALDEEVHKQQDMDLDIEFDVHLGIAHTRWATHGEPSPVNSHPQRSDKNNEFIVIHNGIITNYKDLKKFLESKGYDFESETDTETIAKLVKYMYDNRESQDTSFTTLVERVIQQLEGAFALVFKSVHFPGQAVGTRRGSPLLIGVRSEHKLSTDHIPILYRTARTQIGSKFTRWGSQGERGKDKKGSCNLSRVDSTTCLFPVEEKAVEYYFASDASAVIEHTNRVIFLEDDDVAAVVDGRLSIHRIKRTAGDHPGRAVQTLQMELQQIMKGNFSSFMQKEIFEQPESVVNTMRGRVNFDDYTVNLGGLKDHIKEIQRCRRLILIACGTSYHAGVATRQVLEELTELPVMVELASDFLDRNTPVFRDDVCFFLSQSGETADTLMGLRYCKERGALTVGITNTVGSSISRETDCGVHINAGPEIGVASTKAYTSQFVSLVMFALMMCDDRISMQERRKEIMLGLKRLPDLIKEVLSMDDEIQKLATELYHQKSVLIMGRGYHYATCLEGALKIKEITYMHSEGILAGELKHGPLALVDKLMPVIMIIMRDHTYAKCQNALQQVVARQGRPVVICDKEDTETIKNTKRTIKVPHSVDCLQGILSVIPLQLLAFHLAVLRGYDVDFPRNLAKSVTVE

| SMILES | IC50 [1] [nM] | also measured |
| --- | --- | --- |
| CCOc1cccc(C(=O)c2ncc(C(=O)O)c3cc(OC)c(OC)cc23)c1 | 830 |  |
| COc1cc2c(CNS(=O)(=O)C(F)(F)F)cnc(C(=O)c3cccc(OC(C)C)c3)c2cc1OC | 1000 | Ki [2]: 300 nM; Ki [3]: 300 nM; inhibition [4]: Active; solubility [5]: 3 µg/mL (≈ 5.85 µM); logD [6]: 2.89; Papp [7]: 35.7 ×10⁻⁶ cm/s; half-life [8]: 1.68 h; AUC [9]: 52.3 µg·h/mL; Vd [10]: 0.4 L/kg; clearance [11]: 3.2 mL/min/kg; Tmax [12]: 1 h; AUC [13]: 239 µg·h/mL; Cmax [14]: 112 µM; bioavailability [15]: 91%; Activity [16]: Active; Activity [17]: >35%; degraded at 2 h, 1000 µM [18]: 30%; Stability [19]: Stable; Stability [20]: Stable |
| N[C@@H](CNC(=O)CBr)C(=O)O |  | IC50 [21]: 150 nM |
| COc1cc2c(CNS(C)(=O)=O)cnc(C(=O)c3cccc(OC(C)C)c3)c2cc1OC | 900 |  |
| COc1cccc(C(O)c2ncc(C(=O)O)c3cc(OC)c(OC)cc23)c1 (centres undefined) | > 100000 |  |
| COc1cccc(C(=O)c2ncc(C(=O)O)c3ccc(OC)cc23)c1 | > 100000 |  |
| COc1cc2c(CC(=O)O)cnc(C(=O)c3cc(OC(C)C)ccc3F)c2cc1OC | 1900 |  |
| COc1ccc(Cc2ncc(C(=O)O)c3cc(OC)c(OC)cc23)cc1OC | > 100000 |  |
| COC(=O)/C=C/C(=O)NC[C@H](N)C(=O)O |  | IC50 [21]: 400 nM |
| COc1cc2c(Cn3oc(=O)[nH]c3=O)cnc(C(=O)c3cccc(OC(C)C)c3)c2cc1OC | 580 |  |
| COc1ccc(F)c(C(=O)c2ncc(CNS(=O)(=O)C(F)(F)F)c3cc(OC)c(OC)cc23)c1 | 680 |  |
| COc1cc2c(C(=O)O)cnc(C(=O)c3cccc(OC(C)C)c3)c2cc1OC | 720 | degraded at 2 h, 1000 µM [22]: 75.9% |
| COc1cc2c(C(=O)O)cnc(C(=O)c3c(F)ccc(OC(C)C)c3F)c2cc1OC | 900 |  |
| COc1cccc(C(=O)c2ncc(C(=O)O)c3ccccc23)c1 | > 100000 |  |
| COc1cccc(C(=O)c2ncc(C(=O)O)c3cc(O)c(OC)cc23)c1 | > 100000 |  |
| COc1cccc(C(=O)c2ncc(C(=O)O)c3cc(OC)c(OC)cc23)c1 | 1200 |  |
| CCOc1cccc(C(=O)c2ncc(-c3nn[nH]n3)c3cc(OC)c(OC)cc23)c1 | 800 |  |
| COc1ccc(C(=O)c2ncc(C(=O)O)c3cc(OC)c(OC)cc23)cc1OC | 20000 |  |
| COc1cccc(NC(=O)c2ncc(C(=O)O)c3cc(OC)c(OC)cc23)c1 | > 100000 |  |
| COc1ccc(F)c(C(=O)c2ncc(C(=O)O)c3cc(OC)c(OC)cc23)c1 | 870 | degraded at 2 h, 1000 µM [22]: 25.4% |
| COc1cc2ccnc3c2c(c1OC)NC=C3 [AAPTAMINE] |  | IC50 [23]: 120000 nM |
| COc1cc2c(C(=O)O)cnc(C(=O)c3c(F)cccc3F)c2cc1OC | 9930 | inhibition [4]: Active; degraded at 2 h, 1000 µM [22]: 0% |
| COc1cc2c(CNS(=O)(=O)C(F)(F)F)cnc(C(=O)c3c(F)cccc3F)c2cc1OC | 4330 |  |
| COc1ccc(C(=O)c2ncc(C(=O)O)c3cc(OC)c(OC)cc23)cc1 | > 100000 |  |
| COc1cc2c(CNC(C)=O)cnc(C(=O)c3cccc(OC(C)C)c3)c2cc1OC | 1100 |  |
| COc1cccc(C(=O)c2ncc(C(=O)O)c3cc(OC)ccc23)c1 | > 100000 |  |
| COc1cc2c(C(=O)O)cnc(C(=O)c3cc(OC(C)C)ccc3F)c2cc1OC | 2500 | degraded at 2 h, 1000 µM [22]: 22% |
| COc1cc2c(C(=O)O)cnc(C(=O)c3ccccc3)c2cc1OC | 10000 |  |
| COc1cc2c(C(=O)O)cnc(C(=O)c3c(F)ccc(OC)c3F)c2cc1OC | 940 |  |
| COc1cc2c(CN3C(=O)CSC3=O)cnc(C(=O)c3cccc(OC(C)C)c3)c2cc1OC | 820 |  |
